Results published in PMC5097887 (European journal of medicinal chemistry, 2016).

Tests used:
[1] = computed value; Table 1 footnote b; cited from earlier work
[2] = assay type: physicochemical; details: n-octanol/sodium phosphate buffer, pH 7.4
[3] = biological target: rat brain TSPO (Rattus norvegicus, UniProt P16257); assay type: binding; details: for LipE: pKi minus clogD; for binding affinity for TSPO (in words): locked amide rotamers of ligand 22

logD [2]	Ki [3] [nM]	LipE [3]	binding affinity for TSPO (in words) [3]	SMILES	cLogD [1]
				CCC(C)N(C)C(=O)c1cc2ccccc2c(-c2ccccc2Cl)n1 (centres unmarked) [Ligand 1, PK11195]	3.97
2.48	0.5 ± 0.1	6.5 ± 0.1		CC(Oc1cc(-c2ccccn2)nc2ncccc12)C(=O)N(C)c1ccccc1 (centres unmarked) [Ligand 20, N-Methyl-N-phenyl-2-[2-(pyridin-2-yl)-1,8-naphthyridin-4-yloxy]propanamide]	
2.48	0.53 ± 0.08	6.6 ± 0.1		CC(Oc1cc(-c2ncccn2)nc2ccccc12)C(=O)N(C)c1ccccc1 (centres unmarked) [Ligand 21, N-Methyl-N-phenyl-2-[2-(pyrimidin-2-yl)quinolin-4-yl]oxypropanamide]	
	0.76 ± 0.09	6.58 ± 0.05		CC(Oc1cc(-c2ccccn2)nc2ccccc12)C(=O)N(C)C(C)C (centres unmarked) [Ligand 22, N-Isopropyl-N-methyl-2-[2-(pyridin-2-yl)quinolin-4-yloxy]propanamide]	
	0.09 ± 0.01	5.80 ± 0.06		CC(Oc1cc(-c2ccccn2)nc2ccccc12)C(=O)N(C)c1ccc(F)cc1 (centres unmarked) [Ligand 23, N-(4-Fluorophenyl)-N-methyl-2-[2-(pyridin-2-yl)quinolin-4-yloxy]propanamide]	
	0.22 ± 0.03	6.13 ± 0.07		CC(Oc1cc(-n2cccc2)nc2ccccc12)C(=O)N(C)c1ccccc1 (centres unmarked) [Ligand 29, 2-[2-(1H-Pyrrol-1-yl)quinolin-4-yloxy]-N-methyl-N-phenylpropanamide]	
	> 1000	<3.93		CN1C(=O)C(Oc2cc(-c3ccccn3)nc3ccccc23)CC1(C)C (centres unmarked) [Ligand 33, 1,5,5-Trimethyl-3-[2-(pyridin-2-yl)quinolin-4-yloxy]pyrrolidin-2-one]	
	> 1000	<3.36	lacked any appreciable binding affinity	CC(C)N1CCC(Oc2cc(-c3ccccn3)nc3ccccc23)C1=O (centres unmarked) [Ligand 34, 1-Isopropyl-3-[2-(pyridin-2-yl)quinolin-4-yloxy]pyrrolidin-2-one]	
			lacked any appreciable binding affinity	O=[N+]([O-])c1ccccc1NCc1ccccn1 [Ligand 35, 2-Nitro-N-(pyridin-2-ylmethyl)aniline]	
	> 1000	<2.47		CC(On1c(-c2ccccn2)nc2ccccc21)C(=O)N(C)C(C)C (centres unmarked) [Ligand 36, N-Isopropyl-N-methyl-2-(2-(pyridin-2-yl)-1H-benzo[d]imidazol-1-yloxy)propanamide]	

SMILES	logD [2]	Ki [3] [nM]	LipE [3]	binding affinity for TSPO (in words) [3]	cLogD [1]
COc1cc(OC(C)C(=O)N(C)c2ccccc2)c2cccnc2n1 (centres unmarked) [Ligand 27, 2-(2-Methoxy-1,8-naphthyridin-4-yloxy)-N-methyl-N-phenylpropanamide]		7.8 ± 0.6	6.09 ± 0.04		
